Measured values reported in PubChem BioAssay AID1963421 (Molecular Pharmacology Branch, DTP, NCI, 2024).

Test system: 519858-162-T-J1-PDC complex spheroid growth, % test/control
Test: Anticancer human tumor 519858-162-T-J1-PDC patient-derived colon adenocarcinoma cell line growth inhibition [Asc]
Conditions: for IC50: curve of first compound; for viability, T/C: stronger effect = lower value; active means viability on the fitted dose curve at most 10% of control; inactive means the rest
Summary of the method: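 Tumor cells were grown as complex spheroids with human endothelial cells (HUVEC) and human mesenchymal stem cells as stroma. Agents were tested alone and in combination, in half-log steps down from the clinical Cmax, or from 10 microM where Cmax was unknown.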

[1] = second compound 0.0316 µM, first compound 0.00316 µM
[2] = second compound 0.0316 µM, first compound 0.01 µM
[3] = second compound 0.0316 µM, first compound 0.0316 µM
[4] = second compound 0.0316 µM, first compound 0.1 µM
[5] = second compound 0.1 µM, first compound 0.00316 µM
[6] = second compound 0.1 µM, first compound 0.01 µM
[7] = second compound 0.1 µM, first compound 0.0316 µM
[8] = second compound 0.1 µM, first compound 0.1 µM
[9] = second compound 0.316 µM, first compound 0.00316 µM
[10] = second compound 0.316 µM, first compound 0.01 µM
[11] = second compound 0.316 µM, first compound 0.0316 µM
[12] = second compound 0.316 µM, first compound 0.1 µM
[13] = second compound 1 µM, first compound 0.00316 µM
[14] = second compound 1 µM, first compound 0.01 µM
[15] = second compound 1 µM, first compound 0.0316 µM
[16] = second compound 1 µM, first compound 0.1 µM
[17] = second compound 3.16 µM, first compound 0.00316 µM
[18] = second compound 3.16 µM, first compound 0.01 µM
[19] = second compound 3.16 µM, first compound 0.0316 µM
[20] = second compound 3.16 µM, first compound 0.1 µM
[21] = second compound 10 µM, first compound 0.00316 µM
[22] = second compound 10 µM, first compound 0.01 µM
[23] = second compound 10 µM, first compound 0.0316 µM
[24] = second compound 10 µM, first compound 0.1 µM
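Further: seven day drug exposure begun three days after spheroid seeding.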
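Wherever viability, T/C is given: 100% = DMSO vehicle wells and lower values mean less viable spheroid.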

COc1c(OCCCN2CCOCC2)ccc2c3n(c(=NC(=O)c4cnc(N)nc4)nc12)CCN3 + Cc1c(S(C)(=O)=O)c(-c2cc(F)cc(N3CCN(c4ccc(NS(=O)(=O)c5ccc(NC(CCN6CCC(C(=O)OCCCP(=O)(O)O)CC6)CSc6ccccc6)c(S(=O)(=O)C(F)(F)F)c5)cc4)CC3)c2)c(-c2ccc(Cl)cc2)n1C(C)C
inactive: viability, T/C [1] 41.6% | viability, T/C [2] 97.5% | viability, T/C [3] 74.9% | viability, T/C [4] 95.5% | viability, T/C (second compound 0.0316 µM, first compound 0.316 µM) 54.4% | viability, T/C (second compound 0.0316 µM, first compound 1 µM) 52.7% | viability, T/C [5] 68.5% | viability, T/C [6] 94.5% | viability, T/C [7] 64.7% | viability, T/C [8] 100% | viability, T/C (second compound 0.1 µM, first compound 0.316 µM) 53.2% | viability, T/C (second compound 0.1 µM, first compound 1 µM) 47.1% | viability, T/C [9] 65.2% | viability, T/C [10] 103% | viability, T/C [11] 69.4% | viability, T/C [12] 72.7% | viability, T/C (second compound 0.316 µM, first compound 0.316 µM) 52.2% | viability, T/C (second compound 0.316 µM, first compound 1 µM) 53.5% | viability, T/C [13] 108% | viability, T/C [14] 97.1% | viability, T/C [15] 74.7% | viability, T/C [16] 59.8% | viability, T/C (second compound 1 µM, first compound 0.316 µM) 46.8% | viability, T/C (second compound 1 µM, first compound 1 µM) 42.2% | viability, T/C [17] 84.1% | viability, T/C [18] 60.8% | viability, T/C [19] 79.2% | viability, T/C [20] 70.3% | viability, T/C (second compound 3.16 µM, first compound 0.316 µM) 53.9% | viability, T/C (second compound 3.16 µM, first compound 1 µM) 55.6% | viability, T/C [21] 78.3% | viability, T/C [22] 72.1% | viability, T/C [23] 71.1% | viability, T/C [24] 45.6% | viability, T/C (second compound 10 µM, first compound 0.316 µM) 58.2% | viability, T/C (second compound 10 µM, first compound 1 µM) 46.2%
> 1000 nM: IC50 (second compound 0.0316 µM) | IC50 (second compound 0.316 µM) | IC50 (second compound 3.16 µM) | IC50 (second compound 10 µM)
238 nM: IC50 (second compound 1 µM)
578 nM: IC50 (second compound 0.1 µM)

NC(=O)C(=Cn1cnc(-c2cc(C(F)(F)F)cc(C(F)(F)F)c2)n1)c1cncnc1 + Cc1c(S(C)(=O)=O)c(-c2cc(F)cc(N3CCN(c4ccc(NS(=O)(=O)c5ccc(NC(CCN6CCC(C(=O)OCCCP(=O)(O)O)CC6)CSc6ccccc6)c(S(=O)(=O)C(F)(F)F)c5)cc4)CC3)c2)c(-c2ccc(Cl)cc2)n1C(C)C
> 300 nM: IC50 (second compound 0.0316 µM) | IC50 (second compound 0.1 µM) | IC50 (second compound 0.316 µM) | IC50 (second compound 1 µM) | IC50 (second compound 3.16 µM) | IC50 (second compound 10 µM)
inactive: viability, T/C (second compound 0.0316 µM, first compound 0.000949 µM) 113% | viability, T/C (second compound 0.0316 µM, first compound 0.003 µM) 101% | viability, T/C (second compound 0.0316 µM, first compound 0.00949 µM) 87.4% | viability, T/C (second compound 0.0316 µM, first compound 0.03 µM) 66% | viability, T/C (second compound 0.0316 µM, first compound 0.0949 µM) 97.8% | viability, T/C (second compound 0.0316 µM, first compound 0.3 µM) 88.3% | viability, T/C (second compound 0.1 µM, first compound 0.000949 µM) 94.2% | viability, T/C (second compound 0.1 µM, first compound 0.003 µM) 89.1% | viability, T/C (second compound 0.1 µM, first compound 0.00949 µM) 93.7% | viability, T/C (second compound 0.1 µM, first compound 0.03 µM) 78.3% | viability, T/C (second compound 0.1 µM, first compound 0.0949 µM) 59.4% | viability, T/C (second compound 0.1 µM, first compound 0.3 µM) 98.2% | viability, T/C (second compound 0.316 µM, first compound 0.000949 µM) 97.4% | viability, T/C (second compound 0.316 µM, first compound 0.003 µM) 86% | viability, T/C (second compound 0.316 µM, first compound 0.00949 µM) 90.9% | viability, T/C (second compound 0.316 µM, first compound 0.03 µM) 60.7% | viability, T/C (second compound 0.316 µM, first compound 0.0949 µM) 82.7% | viability, T/C (second compound 0.316 µM, first compound 0.3 µM) 74.9% | viability, T/C (second compound 1 µM, first compound 0.000949 µM) 86.6% | viability, T/C (second compound 1 µM, first compound 0.003 µM) 122% | viability, T/C (second compound 1 µM, first compound 0.00949 µM) 65% | viability, T/C (second compound 1 µM, first compound 0.03 µM) 83.5% | viability, T/C (second compound 1 µM, first compound 0.0949 µM) 71.6% | viability, T/C (second compound 1 µM, first compound 0.3 µM) 71.5% | viability, T/C (second compound 3.16 µM, first compound 0.000949 µM) 79.8% | viability, T/C (second compound 3.16 µM, first compound 0.003 µM) 79.2% | viability, T/C (second compound 3.16 µM, first compound 0.00949 µM) 78.8% | viability, T/C (second compound 3.16 µM, first compound 0.03 µM) 50.3% | viability, T/C (second compound 3.16 µM, first compound 0.0949 µM) 54.6% | viability, T/C (second compound 3.16 µM, first compound 0.3 µM) 79.8% | viability, T/C (second compound 10 µM, first compound 0.000949 µM) 58.9% | viability, T/C (second compound 10 µM, first compound 0.003 µM) 59.7% | viability, T/C (second compound 10 µM, first compound 0.00949 µM) 71.2% | viability, T/C (second compound 10 µM, first compound 0.03 µM) 76.3% | viability, T/C (second compound 10 µM, first compound 0.0949 µM) 72.4% | viability, T/C (second compound 10 µM, first compound 0.3 µM) 60.1%

NC1CCC(NC2CC2c2ccccc2)CC1 (stereo unspecified) + Cc1c(S(C)(=O)=O)c(-c2cc(F)cc(N3CCN(c4ccc(NS(=O)(=O)c5ccc(NC(CCN6CCC(C(=O)OCCCP(=O)(O)O)CC6)CSc6ccccc6)c(S(=O)(=O)C(F)(F)F)c5)cc4)CC3)c2)c(-c2ccc(Cl)cc2)n1C(C)C
> 100 nM: IC50 (second compound 0.0316 µM) | IC50 (second compound 0.1 µM) | IC50 (second compound 0.316 µM) | IC50 (second compound 1 µM) | IC50 (second compound 3.16 µM) | IC50 (second compound 10 µM)
inactive: viability, T/C (second compound 0.0316 µM, first compound 0.000316 µM) 106% | viability, T/C (second compound 0.0316 µM, first compound 0.001 µM) 128% | viability, T/C [1] 116% | viability, T/C [2] 137% | viability, T/C [3] 115% | viability, T/C [4] 70.6% | viability, T/C (second compound 0.1 µM, first compound 0.000316 µM) 134% | viability, T/C (second compound 0.1 µM, first compound 0.001 µM) 122% | viability, T/C [5] 92.7% | viability, T/C [6] 94.8% | viability, T/C [7] 79.9% | viability, T/C [8] 98.3% | viability, T/C (second compound 0.316 µM, first compound 0.000316 µM) 65.3% | viability, T/C (second compound 0.316 µM, first compound 0.001 µM) 109% | viability, T/C [9] 142% | viability, T/C [10] 94% | viability, T/C [11] 85.5% | viability, T/C [12] 107% | viability, T/C (second compound 1 µM, first compound 0.000316 µM) 96.3% | viability, T/C (second compound 1 µM, first compound 0.001 µM) 74.7% | viability, T/C [13] 99.4% | viability, T/C [14] 60.3% | viability, T/C [15] 134% | viability, T/C [16] 77.9% | viability, T/C (second compound 3.16 µM, first compound 0.000316 µM) 72.6% | viability, T/C (second compound 3.16 µM, first compound 0.001 µM) 113% | viability, T/C [17] 97.3% | viability, T/C [18] 83.6% | viability, T/C [19] 115% | viability, T/C [20] 116% | viability, T/C (second compound 10 µM, first compound 0.000316 µM) 69.7% | viability, T/C (second compound 10 µM, first compound 0.001 µM) 79% | viability, T/C [21] 60.6% | viability, T/C [22] 77.1% | viability, T/C [23] 55.4% | viability, T/C [24] 69.9%
